pIC50: −log10 of the molar value.
How the values were obtained:
[1] = molecular target: T1, human recombinant chemokine CCR8 receptor (Homo sapiens, UniProt P51685); assay: CCL1 SPA Binding Assay; conditions: inhibition of 125I CCL1 binding to CCR8 membranes from transfected CHO-K1 cells
T1 construct: purchased Euroscreen ES-136-M; host or cells: CHO-K1 cells (transfected), membrane preparation
Method: Membranes from CHO-K1 cells transfected with human recombinant chemokine CCR8 receptor (ES-136-M) were purchased from Euroscreen. Membrane preparations are stored at −70C in 7.5 mM Tris-Cl pH 7.5, 12.5 mM MgCl2, 0.3 mM EDTA, 1 mM EGTA, 250 mM sucrose until used.
The CCR8 membranes ([…]) were preincubated with Wheat Germ Agglutinin SPA beads (4.05 mg/ml) in assay buffer (50 mM HEPES, 1 mM CaCl2x2H2O, 5 mM MgCl2x6H2O, 75 mM NaCl, 0.1% BSA) at pH=7.4 for 2 hours on ice. A […] dose-response curve (final concentrations 50 μM, 16.7 μM, 5.6 μM, 1.9 μM, 0.62 μM, 0.21 μM, 0.069 μM, 0.023 μM) was prepared by diluting compounds by serial dilution 1:3 in DMSO. In the screening plate (Polystyrene NBS plates, Costar Corning 3604) 1 μl from the DMSO solutions of compounds was transferred into each well. 1 μl of DMSO was added to the blank control wells and 1 μl unlabeled CCL1 ([…]) was added to background control wells. 50 μl of the SPA bead-membrane mixture was added into each well. Finally, 50 μl ([…]) ^125I CCL1 (2000 Ci/mM) was added to each well. Plates were then incubated at RT with shaking (700 rpm) for 90 minutes followed by 30 minutes at RT without shaking. The plate was read in a Wallac MicroBeta counter for 2 minutes/well.

[2] = Human Microsomal Stability Assay; type: in vitro ADME; conditions: human microsomes (Xenotech); human microsomes 1 mg protein/mL, compound 2.5 μM, NADPH 2 mM, pH 7.4, 37° C.; read-out: Intrinsic clearance
Method: Human Microsomal Stability Assay
Samples at four time-points (0, 5, 15 and 30 minutes) are withdrawn and the enzymatic reaction is terminated by protein precipitation with 1% acetic acid in acetonitrile. The incubations are performed on a thermostated plate (37° C.) placed on a Tecan worktable, and all liquid handling was performed robotically. After centrifugation of the samples, the supernatants are pooled in sets of four before they are analysed by liquid chromatography with tandem mass spectrometry detection (LC/MS/MS) using multiple reaction monitoring (MRM). Data are presented as intrinsic Clearance (CLint), μl/min/mg protein, calculated from the initial linear part of the compound disappearance curve.

T1 sequence (P51685 whole entry): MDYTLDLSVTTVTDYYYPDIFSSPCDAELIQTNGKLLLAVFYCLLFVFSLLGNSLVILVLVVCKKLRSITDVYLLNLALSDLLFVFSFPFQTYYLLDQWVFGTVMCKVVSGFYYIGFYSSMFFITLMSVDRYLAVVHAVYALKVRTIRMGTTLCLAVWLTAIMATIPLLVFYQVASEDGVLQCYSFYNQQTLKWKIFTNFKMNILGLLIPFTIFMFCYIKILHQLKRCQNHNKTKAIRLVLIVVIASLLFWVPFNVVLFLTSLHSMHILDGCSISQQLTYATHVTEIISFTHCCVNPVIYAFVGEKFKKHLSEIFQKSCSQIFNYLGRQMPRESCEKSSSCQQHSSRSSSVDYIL

SMILES | pIC50 [1] | microsomal CLint at 2.5 μM [2] [µL/min/mg]
CC(C)COc1ccccc1CN1CCC2(CC1)CCN(C(=O)c1ccccc1CC(=O)O)CC2 [A, (2-{[9-(2-isobutoxybenzyl)-3,9-diazaspiro[5.5]undec-3-yl]carbonyl}phenyl)acetic Acid, reference compound] | 5.97 | 
CC(C)COc1ccccc1CN1CCC2(CC1)CCN(C(=O)c1ccccc1C(=O)O)CC2 [B, 2-{[9-(2-isobutoxybenzyl)-3,9-diazaspiro[5.5]undec-3-yl]carbonyl}benzoic Acid, reference compound] | 5.86 | 
O=C(O)Cc1ccccc1C(=O)N1CCC2(CCN(Cc3ccccc3Oc3ccccc3)CC2)CC1 [Example 1, (2-{[9-(2-phenoxybenzyl)-3,9-diazaspiro[5.5]undec-3-yl]carbonyl}phenyl)acetic Acid] | 6.19 | < 10
O=C(O)Cc1cc(Cl)ccc1C(=O)N1CCC2(CCN(Cc3ccccc3Oc3ccccc3)CC2)CC1 [Example 2, (5-chloro-2-{[9-(2-phenoxybenzyl)-3,9-diazaspiro[5.5]undec-3-yl]carbonyl}phenyl)acetic Acid] | 6.71 | < 10
O=C(O)Cc1ccccc1C(=O)N1CCC2(CCN(Cc3cccc(Oc4ccccc4)c3)CC2)CC1 [Example 3, (2-{[9-(3-phenoxybenzyl)-3,9-diazaspiro[5.5]undec-3-yl]carbonyl}phenyl)acetic Acid] | 6.84 | < 10
COc1ccccc1Oc1cccc(CN2CCC3(CC2)CCN(C(=O)c2ccccc2CC(=O)O)CC3)c1 [Example 8, [2-({9-[3-(2-methoxyphenoxy)benzyl]-3,9-diazaspiro[5.5]undec-3-yl}carbonyl)phenyl]acetic Acid] | 7.38 | < 10
COc1ccccc1Oc1cccc(CN2CCC3(CC2)CCN(C(=O)c2ccc(OCC(=O)O)cc2)CC3)c1 [Example 10, [4-({9-[3-(2-methoxyphenoxy)benzyl]-3,9-diazaspiro[5.5]undec-3-yl}carbonyl)phenoxy]acetic Acid] | 6.39 | < 10
COc1ccccc1Oc1cccc(CN2CCC3(CC2)CCN(C(=O)c2ccccc2OCC(=O)O)CC3)c1 [Example 11, [2-({9-[3-(2-methoxyphenoxy)benzyl]-3,9-diazaspiro[5.5]undec-3-yl}carbonyl)phenoxy]acetic Acid] | 6.28 | < 10
COc1ccccc1Oc1cccc(CN2CCC3(CC2)CCN(C(=O)c2ccc(Cl)cc2)CC3)c1 [Y, 3-(4-chlorobenzoyl)-9-[3-(2-methoxyphenoxy)benzyl]-3,9-diazaspiro[5.5]undecane, reference compound] |  | > 200

Other lines, results leading:

pIC50 [1] | microsomal CLint at 2.5 μM [2] [µL/min/mg] | SMILES
7.24 | < 10 | COc1ccccc1Oc1ccccc1CN1CCC2(CC1)CCN(C(=O)c1ccccc1CC(=O)O)CC2 [Example 4, [2-({9-[2-(2-methoxyphenoxy)benzyl]-3,9-diazaspiro[5.5]undec-3-yl}carbonyl)phenyl]acetic Acid]
7.77 | < 10 | COc1ccccc1Oc1ccccc1CN1CCC2(CC1)CCN(C(=O)c1ccc(Cl)cc1CC(=O)O)CC2 [Example 5, [5-chloro-2-({9-[2-(2-methoxyphenoxy)benzyl]-3,9-diazaspiro[5.5]undec-3-yl}carbonyl)phenyl]acetic Acid]
7.09 | 16 | COc1ccccc1Oc1ccccc1CN1CCC2(CC1)CCN(C(=O)c1cc(Cl)c(Cl)cc1C(=O)O)CC2 [Example 6, 4,5-dichloro-2-({9-[2-(2-methoxyphenoxy)benzyl]-3,9-diazaspiro[5.5]undec-3-yl}carbonyl)benzoic Acid]
7.00 | < 10 | COc1ccccc1Oc1ccccc1CN1CCC2(CC1)CCN(C(=O)c1ccccc1NC(=O)C(=O)O)CC2 [Example 7, {[2-({9-[2-(2-methoxyphenoxy)benzyl]-3,9-diazaspiro[5.5]undec-3-yl}carbonyl)phenyl]amino}(oxo)acetic Acid]
7.15 | < 10 | COc1ccccc1Oc1cccc(CN2CCC3(CC2)CCN(C(=O)c2ccccc2C(=O)O)CC3)c1 [Example 9, 2-({9-[3-(2-methoxyphenoxy)benzyl]-3,9-diazaspiro[5.5]undec-3-yl}carbonyl)benzoic Acid]

— patent US20090118318A1, “Novel Diazaspiroalkanes and Their Use for Treatment of CCR8 Mediated Diseases” (priority 2005, published 2009)
